Patent publication US12285498B2, “Pharmaceutical composition with nanoparticle-based drug delivery combined with non-invasive radiographic monitoring model” (NANOMEDTRIX, LLC, priority 2023, dated 2025)
Where two headings read alike, the source gives them in different places. Blank lines part the entries; values can stand above or below the molecule they belong to.

Assays:
in vivo [1] = assay: in vivo
From the text: Blood, urine, and stools were collected to evaluate renal and gastro-intestinal clearance of nanomaterials. Sequential and simultaneous administration of one material and before the start of another to allow full clearance.
Both strains were obtained from Inotiv (Indianapolis, IN, USA). F344 rats were instilled with rat AY27 bladder cancer cells and athymic nude rats were instilled with human male bladder cancer strains: T24 and UMUC-3. […] In these rats, blood/urine were collected, but spared from PK/PD studies to avoid confounding results. In this cohort, rats (n=3) were instilled with tumors and treated with sequential intravesical and oral drug-MSN 3-drugs load and body fluids (blood/urine) collection at the same prescribed time points. An example: four rounds of treatment were administered fluid collected n=3 samples at each time point.

in vivo [2] = assay: in vivo; remark: listed apart in the source
From the text: The following discusses oral administration and detection of the drug delivered orally. There is a need for oral drug delivery, i.e., it facilitates self-medication, storage, and reduced burden on the clinician, allowing for remote monitoring.

[3] = PK, intravenous administration of drug alone (current study); assay type: in vivo, rat; conditions: for Cmax: 3 mg/kg DOC, 12 mg/kg GEM, 6 mg/kg MMC; for AUC: read-out: AUC (Plasma Curves)
Description: Adult female rats are 250-300 g in body weight, or 10-15 times larger than adult C57-BI6 mice. The volume of an aqueous solution given by oral gavage procedure can be up to 5 mL/kg, thus for a 300 g rat, 1.5 mL volume is achievable (Turner, J Am Assoc Lab Anim Sci. 51(1): 25-30.). This permits a mass of 150 mg MSN, or the equivalent dose of free drug. The recommended volume of a tail vein injection is also 5 mL/kg, thus 150 mg MSN or equivalent drug can be administered by i.v. as well (https://research.unc.edu/files/2020/12/rat-handling-and-techniques.pdf).
We compared the one or 2 drugs to experiment carried out intravenous/systemic and/or intravesicular drug alone.

[4] = intravenous, cited from earlier work
[5] = known value; cited from earlier work
[6] = rat, in vivo
[7] = intravenous, cited from earlier work; remark: listed apart in the source
[8] = oral, 50 mg/kg; cited from earlier work
[9] = intravenous, cited from earlier work; remark: listed apart in the source
[10] = Comparison of AUC for drug-MSN versus drug administered alone (FIG. 7); conditions: rat, in vivo
[11] = female, rat, in vivo, Cmax in stools
[12] = female, rat, in vivo, initial concentration (Cmax) in urine
[13] = female, rat, in vivo, po, 3 mg/kg
[14] = female, rat, in vivo, po, Cmax in stool
[15] = female, rat, in vivo, po, Cmax in urine
[16] = female, rat, plasma, read-out: Cmax
[17] = female, rat, in vivo, po, 12 mg/kg

- Cmax (in vivo [1]; [11]): 9.44 ng/mL
- Cmax (in vivo [1]; [12]): 16600 ng/mL
- detection in plasma (in vivo [1]; rat, in vivo): below the detection threshold
- time of Cmax in stools (in vivo [1]; rat, in vivo): 24 h
- AUC (in vivo [2]; [13]): 0.0133 µg·h/mL
- Clearance (in vivo [2]; [13]): 45.11 L/h
- tmax (in vivo [2]; [13]): 60 min
- Cmax (in vivo [2]; [14]): 352 ng/mL
- Cmax (in vivo [2]; [15]): 413 ng/mL
- time of Cmax in stool (in vivo [2]; rat, in vivo, po): 6 h
- Cmax [3, 16]: 116 ng/mL
- Clearance ([3]; female, rat, plasma, 3 mg/kg): 624 mL/min
- AUC ([3]; female, rat, plasma, 3 mg/kg): 0.016 µg·h/mL
- tmax ([3]; female, rat, plasma, 3 mg/kg, read-out: tmax): 15 min
SMILES: CC(=O)O[C@@]12CO[C@@H]1C[C@H](O)[C@@]1(C)C(=O)[C@H](O)C3=C(C)[C@@H](OC(=O)[C@H](O)[C@@H](NC(=O)OC(C)(C)C)c4ccccc4)C[C@@](O)([C@@H](OC(=O)c4ccccc4)[C@H]21)C3(C)C [Docetaxel]
- AUC (Plasma Curves) ([4]; 2 mg/kg): 0.277 µg·h/mL
- Cmax ([4]; 2 mg/kg): 68 ± 10 ng/mL
- AUC (Plasma Curves) ([4]; 5 mg/kg): 16367.39 µg·h/mL
- Cmax ([4]; 5 mg/kg): 7000 ng/mL
- AUC (Plasma Curves) ([4]; 8 mg/kg): 2.2 ± 0.3 µg·h/mL
- Cmax ([4]; 8 mg/kg): 950 ng/mL
- oral bioavailability [5]: 10%

SMILES: Nc1ccn([C@@H]2O[C@H](CO)[C@@H](O)C2(F)F)c(=O)n1 [Gemcitabine]
- plasma Cmax as % of Cmax for urine (in vivo [1]; female, rat, in vivo): ~1%
- AUC (in vivo [1]; female, rat, in vivo, 12 mg/kg): 0.28 µg·h/mL
- Clearance (in vivo [1]; female, rat, in vivo, 12 mg/kg): 143 mL/min
- tmax (in vivo [1]; female, rat, in vivo, 12 mg/kg): 15 min
- Cmax (in vivo [1]; [11]): 2.23 ng/mL
- Cmax (in vivo [1]; [12]): 55600 ng/mL
- time of Cmax in plasma (in vivo [1]; rat, in vivo): ≤ 15 min
- time of Cmax in stools (in vivo [1]; rat, in vivo): 24 h
- AUC (in vivo [2]; [17]): 1.14 µg·h/mL
- Clearance (in vivo [2]; [17]): 2.109 L/h
- tmax (in vivo [2]; [17]): 30 min
- Cmax (in vivo [2]; [14]): 26.1 ng/mL
- Cmax (in vivo [2]; [15]): 4740 ng/mL
- time of Cmax in stool (in vivo [2]; rat, in vivo, po): 6 h
- Cmax [3, 16]: 1790 ng/mL
- Clearance ([3]; female, rat, plasma, 12 mg/kg): 17.4 mL/min
- AUC ([3]; female, rat, plasma, 12 mg/kg): 2.3 µg·h/mL
- tmax ([3]; female, rat, plasma, 12 mg/kg, read-out: tmax): 15 min
- AUC, drug alone compared with drug-loaded MSN [6]: higher for drug alone
- AUC (Plasma Curves) ([7]; 15 mg/kg): 22.69 ± 4.14 µg·h/mL
- Clearance ([7]; 15 mg/kg): 393.29 L/h/m^2
- AUC (Plasma Curves) ([7]; 20 mg/kg): 133 ± 20 µg·h/mL
- Clearance ([7]; 20 mg/kg): 89.46 L/h/m^2
- AUC (Plasma Curves) ([7]; 50 mg/kg): 5031.61 ± 927.4 µg·h/mL
- Clearance ([7]; 50 mg/kg): 29.56 L/h/m^2
- tmax ([7]; 15-20 mg/kg): 4.98 min
- AUC (Plasma Curves) [8]: 16132.95 ± 5128.0 µg·h/mL
- Cmax [8]: 1181.17 ± 47.1 ng/mL
- tmax [8]: 90 ± 54 min
- oral bioavailability [5]: 10%

SMILES: CO[C@@]12[C@H](COC(N)=O)C3=C(C(=O)C(C)=C(N)C3=O)N1C[C@@H]1N[C@@H]12 [Mitomycin C, Mitomycin c]
- Cmax (in vivo [1]; drug alone, intravesical, 3 mg/kg DOC, 12 mg/kg GEM, 6 mg/kg MMC, plasma): 32.19 ng/mL
- tmax (in vivo [1]; drug alone, intravesical, plasma): 15 min
- Cmax in stools (in vivo [1]; intravesical administration, stools): 94.22 ng/mL
- initial concentration (Cmax) in urine (in vivo [1]; intravesical administration, urine, 15 minutes following administration): 29498.07 ng/mL
- tmax (in vivo [2]; drug alone, oral, plasma): 30 min
- Cmax in stool (in vivo [2]; oral administration, stool): 157.09 ng/mL
- Cmax in urine (in vivo [2]; oral administration, urine): 16135.89 ng/mL
- tmax [3]: 15 min
- Cmax ([3]; plasma): 39.5 ng/mL
- Cmax ([9]; 4 mg/kg): 800 ng/mL
- tmax ([9]; 4 mg/kg): 15 min
- Cmax ([9]; 5 mg/kg): 12800 ± 400 ng/mL
- tmax ([9]; 5 mg/kg): 4.98 min
- AUC, drug alone compared with drug-loaded MSN [10]: higher for drug alone
